As a reminder, the IC50 is the concentration that inhibits the measured activity by half.

Here are results for two compounds from ChEMBL document CHEMBL2034897, “Discovery and optimization of benzenesulfonanilide derivatives as a novel class of 11β-HSD1 inhibitors” (Bioorg Med Chem Lett, 2012).

This assay addresses 11-beta-hydroxysteroid dehydrogenase 1 (Homo sapiens, UniProt P28845). The assay can be described thus: Inhibition of human 11beta-HSD1 using [3H]cortisone as substrate assessed as production of [3H]-cortisol by scintillation proximity assay.

SMILES strings stand for the structures. A value given as a limit tells only on which side of the number the result lay.

11-beta-hydroxysteroid dehydrogenase 1, sequence (P28845 whole entry): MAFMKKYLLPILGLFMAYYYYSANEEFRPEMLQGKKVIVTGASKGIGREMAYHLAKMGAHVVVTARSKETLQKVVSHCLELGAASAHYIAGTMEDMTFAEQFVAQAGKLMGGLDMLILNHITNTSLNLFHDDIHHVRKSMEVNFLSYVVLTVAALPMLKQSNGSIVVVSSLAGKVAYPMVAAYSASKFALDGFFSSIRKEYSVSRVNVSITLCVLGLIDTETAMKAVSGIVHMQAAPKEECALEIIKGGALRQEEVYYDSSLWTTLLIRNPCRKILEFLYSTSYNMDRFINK

Consider `CC(O)(c1ccc(NS(=O)(=O)c2ccccc2)cc1)C(F)(F)F` (racemic), for which the IC50 was more than 1000 nM. Regarding `CN(c1ccc(C(C)(O)C(F)(F)F)cc1)S(=O)(=O)c1ccccc1` (racemic), the IC50 was more than 1000 nM.
